Assay results reported in publication PMC8260761, “A bacteriocin-based treatment option for Staphylococcus haemolyticus biofilms” (Scientific Reports, 2021).

What was measured:
Test in all cases: Spot-on-lawn inhibition assay
Type in all cases: cell-based
E. faecalis = test system: E. faecalis; parameters: key: –: “−” = No inhibition; “+” = Unclear zone; “++” = zone < 1 cm; “+++” = zone ≥ 1 cm; settings: 5 µl at 1 mg/ml, n=3
Description: (§1) A semi-quantitative spot-on-lawn inhibitory assay was performed on 51 bacterial indicator strains (Table S1) to determine the bacteriocins inhibition spectra. Overnight cultures were diluted 1:100 in BHI soft agar and distributed on BHI agar plates. Once solidified, bacteriocins with various concentrations were applied on designated spots. The plates were incubated at appropriate temperature O/N and inhibition zones were measured the following day. To determine minimal inhibitory concentration (MIC50) of H1 against clinical S. haemolyticus isolates (Table S2), as well as strains heterologously expressing RseP (Table S4), the microtiterplate antimicrobial assay was performed as previously described[41],[79]. MIC50 was defined as the minimal bacteriocin concentration needs to inhibit the growth of a bacterial strain by at least 50%.

Enterococcus avium = test system: Enterococcus avium; parameters: key: –: “−” = No inhibition; “+” = Unclear zone; “++” = zone < 1 cm; “+++” = zone ≥ 1 cm; settings: Enterococcus avium LMG 3465; 5 µl at 1 mg/ml; n=3
Description: as §1

L. ivanovii = test system: L. ivanovii; parameters: key: –: “−” = No inhibition; “+” = Unclear zone; “++” = zone < 1 cm; “+++” = zone ≥ 1 cm; settings: L. ivanovii Li4; 5 µl at 1 mg/ml; n=3
Description: as §1

Lactococcus garvieae = test system: Lactococcus garvieae; parameters: key: –: “−” = No inhibition; “+” = Unclear zone; “++” = zone < 1 cm; “+++” = zone ≥ 1 cm; settings: Lactococcus garvieae DCC43; 5 µl at 1 mg/ml; n=3
Description: as §1

L. plantarum = test system: L. plantarum; parameters: key: –: “−” = No inhibition; “+” = Unclear zone; “++” = zone < 1 cm; “+++” = zone ≥ 1 cm; settings: L. plantarum LMG 2352; 5 µl at 1 mg/ml; n=3
Description: as §1

S. homonis = S. homonis LMG 3129; 5 µl at 1 mg/ml; n=3
Description: as §1

E. faecium = settings: 5 µl at 1 mg/ml, n=3
Description: as §1

Lactobacillus curvatus = settings: 5 µl at 1 mg/ml, n=3
Description: as §1

Carnobacterium divergens = test system: Carnobacterium divergens; parameters: key: “-“ = No inhibition; “+” = Unclear zone; “++” = zone < 1 cm; “+++”= zone > 1 cm; settings: Carnobacterium divergens NCDO 2306; 5 µl at 1 mg/ml; n=3
Description: as §1

L. monocytogenes = test system: L. monocytogenes; parameters: key: “-“ = No inhibition; “+” = Unclear zone; “++” = zone < 1 cm; “+++”= zone > 1 cm; settings: 5 µl at 1 mg/ml, n=3
Description: as §1

S. uberis = test system: S. uberis; parameters: key: “-“ = No inhibition; “+” = Unclear zone; “++” = zone < 1 cm; “+++”= zone > 1 cm; settings: 5 µl at 1 mg/ml, n=3
Description: as §1

L. salivarius = test system: L. salivarius; parameters: key: “-“ = No inhibition; “+” = Unclear zone; “++” = zone < 1 cm; “+++”= zone > 1 cm; settings: L. salivarius UCC118; 5 µl at 1 mg/ml; n=3
Description: as §1

Esherichia coli = test system: Esherichia coli; parameters: key: “-“ = No inhibition; “+” = Unclear zone; “++” = zone < 1 cm; “+++”= zone > 1 cm; settings: 5 µl at 1 mg/ml, n=3
Description: as §1

[1] = test system: Staphylococcus haemolyticus strains; parameters: key to Mutants observed after 24 h (mark *): *Mutants observed after 24 h; key to Average inhibition score: –: “−” = No inhibition; “+” = Unclear zone; “++” = zone < 1 cm; “+++” = zone ≥ 1 cm; settings: for Mutants observed after 24 h (mark *): spot of 5 μl at 1 mg/ml
Description: as §1

Q: What does the source list for “MLAKIKAMIKKFPNPYTLAAKLTTYEINWYKQQYGRYPWERPVA [EJ97, enterocin EJ97]”?
A: Average inhibition score (E. faecalis; E. faecalis LMG 2333): +++ (“+++”= zone > 1 cm); Average inhibition score (E. faecalis; E. faecalis LMG 3330): +++ (“+++”= zone > 1 cm); Average inhibition score (E. faecalis; E. faecalis LMG 3331): +++ (“+++”= zone > 1 cm); Average inhibition score (E. faecalis; E. faecalis LMG 3332): +++ (“+++”= zone > 1 cm); Average inhibition score (E. faecalis; E. faecalis V583): +; Average inhibition score (Enterococcus avium): +++ (“+++”= zone > 1 cm); Average inhibition score (L. ivanovii): +; Average inhibition score (Lactococcus garvieae): +; Average inhibition score (L. plantarum): ++ (“++” = zone < 1 cm); Average inhibition score (S. homonis): +++ (“+++”= zone > 1 cm); Average inhibition score (E. faecium; E. faecium AL41): +++ (“+++”= zone > 1 cm); Average inhibition score (E. faecium; E. faecium L50): +++ (“+++”= zone > 1 cm); Average inhibition score (E. faecium; E. faecium P13): +++ (“+++”= zone > 1 cm); Average inhibition score (E. faecium; E. faecium P21): +++ (“+++”= zone > 1 cm); Average inhibition score (Lactobacillus curvatus; L. curvatus LMG 2353): +++ (“+++”= zone > 1 cm); Average inhibition score (Lactobacillus curvatus; Lactobacillus curvatus LTH 1174): +++ (“+++”= zone > 1 cm); Average inhibition score (Carnobacterium divergens): -; Average inhibition score (L. monocytogenes; L. monocytogenes 223): -; Average inhibition score (L. monocytogenes; L. monocytogenes 279): -; Average inhibition score (L. monocytogenes; L. monocytogenes 400): -; Average inhibition score (L. monocytogenes; L. monocytogenes 403): -; Average inhibition score (S. uberis; S. uberis 7904-3): -; Average inhibition score (S. uberis; S. uberis 8008-1): -; Average inhibition score (L. salivarius): -; Average inhibition score (Esherichia coli; E. coli TG1): -; Average inhibition score (Esherichia coli; Esherichia coli DH5α): -; Average inhibition score ([1]; S. haemolyticus 4068, 5 μl at 1 mg/ml, n = 3): ++ (“++” = zone < 1 cm); Mutants observed after 24 h (mark *) ([1]; S. haemolyticus 4068): *; Average inhibition score ([1]; S. haemolyticus 4069, 5 μl at 1 mg/ml, n = 3): ++ (“++” = zone < 1 cm); Mutants observed after 24 h (mark *) ([1]; S. haemolyticus 4069): *; Average inhibition score ([1]; S. haemolyticus 4070, 5 μl at 1 mg/ml, n = 3): ++ (“++” = zone < 1 cm); Mutants observed after 24 h (mark *) ([1]; S. haemolyticus 4070): *; Average inhibition score ([1]; S. haemolyticus 4071, 5 μl at 1 mg/ml, n = 3): ++ (“++” = zone < 1 cm); Mutants observed after 24 h (mark *) ([1]; S. haemolyticus 4071): *; Average inhibition score ([1]; S. haemolyticus 4072, 5 μl at 1 mg/ml, n = 3): ++ (“++” = zone < 1 cm); Mutants observed after 24 h (mark *) ([1]; S. haemolyticus 4072): *; Average inhibition score ([1]; S. haemolyticus 4073, 5 μl at 1 mg/ml, n = 3): ++ (“++” = zone < 1 cm); Mutants observed after 24 h (mark *) ([1]; S. haemolyticus 4073): *; Average inhibition score ([1]; S. haemolyticus 7067_4_21, 5 μl at 1 mg/ml, n = 3): ++ (“++” = zone < 1 cm); Mutants observed after 24 h (mark *) ([1]; S. haemolyticus 7067_4_21): *; Average inhibition score ([1]; S. haemolyticus 7067_4_28, 5 μl at 1 mg/ml, n = 3): +++ (“+++” = zone ≥ 1 cm); Mutants observed after 24 h (mark *) ([1]; S. haemolyticus 7067_4_28): *; Average inhibition score ([1]; S. haemolyticus 7067_4_39, 5 μl at 1 mg/ml, n = 3): +; Average inhibition score ([1]; S. haemolyticus 7067_4_48, 5 μl at 1 mg/ml, n = 3): +; Average inhibition score ([1]; S. haemolyticus 7067_4_49, 5 μl at 1 mg/ml, n = 3): ++ (“++” = zone < 1 cm); Mutants observed after 24 h (mark *) ([1]; S. haemolyticus 7067_4_49): *; Average inhibition score ([1]; S. haemolyticus 7067_4_56, 5 μl at 1 mg/ml, n = 3): ++ (“++” = zone < 1 cm); Mutants observed after 24 h (mark *) ([1]; S. haemolyticus 7067_4_56): *; Average inhibition score ([1]; S. haemolyticus 7067_4_60, 5 μl at 1 mg/ml, n = 3): +++ (“+++” = zone ≥ 1 cm); Mutants observed after 24 h (mark *) ([1]; S. haemolyticus 7067_4_60): *; Average inhibition score ([1]; S. haemolyticus 7067_4_66, 5 μl at 1 mg/ml, n = 3): ++ (“++” = zone < 1 cm); Mutants observed after 24 h (mark *) ([1]; S. haemolyticus 7067_4_66): *; Average inhibition score ([1]; S. haemolyticus 7067_4_67, 5 μl at 1 mg/ml, n = 3): ++ (“++” = zone < 1 cm); Mutants observed after 24 h (mark *) ([1]; S. haemolyticus 7067_4_67): *; Average inhibition score ([1]; S. haemolyticus 7067_4_71, 5 μl at 1 mg/ml, n = 3): +++ (“+++” = zone ≥ 1 cm); Mutants observed after 24 h (mark *) ([1]; S. haemolyticus 7067_4_71): *; Average inhibition score ([1]; S. haemolyticus 7067_4_84, 5 μl at 1 mg/ml, n = 3): ++ (“++” = zone < 1 cm); Mutants observed after 24 h (mark *) ([1]; S. haemolyticus 7067_4_84): *; Average inhibition score ([1]; S. haemolyticus 7068_7_63, 5 μl at 1 mg/ml, n = 3): ++ (“++” = zone < 1 cm); Mutants observed after 24 h (mark *) ([1]; S. haemolyticus 7068_7_63): *; Average inhibition score ([1]; S. haemolyticus LMG 4133, 5 µl at 1 mg/ml, n=3): ++ (“++” = zone < 1 cm); Average inhibition score ([1]; S. haemolyticus SH01, 5 μl at 1 mg/ml, n = 3): +++ (“+++” = zone ≥ 1 cm); Mutants observed after 24 h (mark *) ([1]; S. haemolyticus SH01): *; Average inhibition score ([1]; S. haemolyticus SH04, 5 μl at 1 mg/ml, n = 3): +++ (“+++” = zone ≥ 1 cm); Mutants observed after 24 h (mark *) ([1]; S. haemolyticus SH04): *; Average inhibition score ([1]; S. haemolyticus SH09, 5 μl at 1 mg/ml, n = 3): +; Average inhibition score ([1]; S. haemolyticus SH10, 5 μl at 1 mg/ml, n = 3): +++ (“+++” = zone ≥ 1 cm); Mutants observed after 24 h (mark *) ([1]; S. haemolyticus SH10): *; Average inhibition score ([1]; S. haemolyticus SH14, 5 μl at 1 mg/ml, n = 3): ++ (“++” = zone < 1 cm); Mutants observed after 24 h (mark *) ([1]; S. haemolyticus SH14): *; Average inhibition score ([1]; S. haemolyticus SH20, 5 μl at 1 mg/ml, n = 3): ++ (“++” = zone < 1 cm); Mutants observed after 24 h (mark *) ([1]; S. haemolyticus SH20): *; Average inhibition score ([1]; S. haemolyticus SH46, 5 μl at 1 mg/ml, n = 3): ++ (“++” = zone < 1 cm); Mutants observed after 24 h (mark *) ([1]; S. haemolyticus SH46): *; Average inhibition score ([1]; S. haemolyticus SH47, 5 μl at 1 mg/ml, n = 3): +++ (“+++” = zone ≥ 1 cm); Mutants observed after 24 h (mark *) ([1]; S. haemolyticus SH47): *; Inhibition zones at three concentrations ([1]; six S. haemolyticus strains 4068–4073, 0.04, 0.2 and 1.0 mg/ml, 5 µl spotted): some inhibition was seen only at the highest concentration
